Experimental data reported in article PMC7728372, “Synthesis and Biological Evaluation of Amino Chalcone Derivatives as Antiproliferative Agents” (Molecules, 2020).
Like-named read-outs stand apart in the source and are kept apart here.

Assays:
[1] = tested on: K562 cell line; design: method as in PMID 19837593; settings: cited from earlier work
[2] = tested on: HepG2 cells; design: method as in PMID 23471882; settings: cited from earlier work
[3] = tested on: hCA IX; design: method as in PMID 29852328; settings: cited from earlier work
[4] = tested on: MCF-7 cells; settings: cited from earlier work
[5] = tested on: HCT-116 cells; assay: MTT antiproliferative assay, HCT-116 cells; type: cell-based, human
Protocol: (§1) Cell lines used were cultured in humidified incubator at 37 °C and 5% CO2. The RPMI-1640 medium was supplemented with 10% fetal bovine serum, penicillin (100 U/mL) and streptomycin (0.1 mg/mL).
(§2) Cell lines were seeded into […] and incubated for 24 h. Then cells were treated with different concentrations of compounds. And after another 48 h, MTT reagent (20 μL per well) was added and then incubated at 37 °C for 4 h. Formazan was then dissolved with DMSO. Absorbencies of formazan solution were measured at […]. The IC50 values of tested compounds were calculated by SPSS version 17.0.

[6] = tested on: MCF-7 cells; assay: MTT antiproliferative assay, MCF-7 cells; type: cell-based, human
Protocol: as §1, §2

[7] = tested on: GES-1 cells; assay: MTT antiproliferative assay, non-cancer GES-1 cells; type: cell-based; settings: non-cancer cell line, exposure for 48 h
Protocol: as §1, §2

[8] = tested on: PC-3 cells; design: method as in PMID 27777009; settings: cited from earlier work
[9] = target: VEGFR-2/KDR kinase; design: method as in PMID 27777009; settings: cited from earlier work
[10] = tested on: MGC-803 cells; design: method as in PMID 27423479, PMID 30763884, PMID 27213317; settings: earlier work of the group; cited from earlier work
[11] = tested on: SKVO3 cells; design: method as in PMID 27213819; settings: cited from earlier work
[12] = tested on: MGC-803 cells; assay: MTT antiproliferative assay, MGC-803 cells; type: cell-based, human; settings: Homo sapiens, MGC-803, 48 h, exposure for 48 h
Protocol: as §1, §2

[13] = Homo sapiens, HCT-116, exposure for 48 h
[14] = Homo sapiens, MCF7, exposure for 48 h

COc1ccc(/C=C/C(=O)c2cc(OC)c(OC)c(OC)c2)cc1 [Compound 2, (E)-3-(4-methoxyphenyl)-1-(3,4,5-trimethoxyphenyl)prop-2-en-1-one]
IC50 [1]: 4.5 µM

COc1ccc(/C=C/C(=O)c2ccc(OC)c3c2OC(C)(C)C=C3)cc1 [Compound 3, millepachine]
IC50 [2]: 1.51 µM

O=C(/C=C/c1cn(S(=O)(=O)c2ccc(Cl)cc2Cl)c2ccccc12)c1ccncc1 [Compound 4]
IC50 [3]: 0.13 µM
IC50 [4]: 12.2 µM

O=c1[nH]cc(F)c(=O)[nH]1 [Compound 5-Fu, reference compound]
IC50 ([5]; exposure for 48 h): 14.4 ± 1.73 µM
IC50 ([6]; exposure for 48 h): 12.1 ± 1.28 µM
IC50 [7]: 8.22 µM

CNC(=O)c1cc(Oc2ccc(C(=O)/C=C/c3cc(OC)c(OC)c(OC)c3)cc2)ccn1 [Compound 5]
IC50 [4]: 3.88 µM
IC50 [8]: 3.15 µM
IC50 [9]: 0.72 µM

COc1cc(/C=C/C(=O)c2ccc(NC(=O)CSC(=S)N3CCN(CCO)CC3)cc2)cc(OC)c1OC [Compound 6]
IC50 [10]: 1.74 µM

COc1cc(/C=C/C(=O)c2ccc(OCCCn3cc(CSc4nccs4)nn3)cc2)cc(OC)c1OC [Compound 7]
IC50 [10]: 4.26 µM

COc1ccc(N(C)c2cc(=O)oc3ccccc23)cc1NC(=O)CCCCl [Compound 9]
IC50 [11]: 0.0035 µM

COc1cc(/C=C/C(=O)c2ccc(NC(=O)CCl)cc2)cc(OC)c1OC [Compound 13c]
IC50 [12]: 1.88 ± 0.22 µM
IC50 [5, 13]: 2.83 ± 0.03 µM
IC50 [6, 14]: 3.12 ± 0.01 µM
melting point: 182 to 183 °C

COc1cc(/C=C/C(=O)c2ccc(NC(=O)CCCl)cc2)cc(OC)c1OC [Compound 13d]
IC50 [12]: 1.64 ± 0.18 µM
IC50 [5, 13]: 2.4 ± 0.26 µM
IC50 [6, 14]: 2.12 ± 0.13 µM
melting point: 183 to 184 °C
